Results from PubChem BioAssay (NCI).
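The concentration for 50% growth inhibition is given as GI50. Definition used: TGI = concentration required for complete inhibition of growth.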

Key:
Assay in all cases: inhibition of tumour cell growth, NCI panel, 384-well format
[1] = system: 786-0 renal
[2] = system: A498 renal
[3] = system: A549 NSCLC
[4] = system: ACHN renal
[5] = system: BT-549 breast
[6] = system: CAKI-1 renal
[7] = system: CCRF-CEM leukemia
[8] = system: COLO 205 colon
[9] = system: DU-145 prostate
[10] = system: EKVX NSCLC
[11] = system: HCC-2998 colon
[12] = system: HCT-116 colon
[13] = system: HCT-15 colon
[14] = system: HL-60(TB) leukemia
[15] = system: HOP-62 NSCLC
[16] = system: HOP-92 NSCLC
[17] = system: HS 578T breast
[18] = system: HT29 colon
[19] = system: IGROV1 ovarian
[20] = system: K-562 leukemia
[21] = system: KM12 colon
[22] = system: LOX IMVI melanoma
[23] = system: M14 melanoma
[24] = system: MALME-3M melanoma
[25] = system: MCF7 breast
[26] = system: MDA-MB-231 breast
[27] = system: MDA-MB-435 melanoma
[28] = system: MDA-MB-468 breast
[29] = system: MOLT-4 leukemia
[30] = system: NCI-H226 lung
[31] = system: NCI-H23 lung
[32] = system: NCI-H322M lung
[33] = system: NCI-H460 NSCLC
[34] = system: NCI-H522 lung
[35] = system: NCI/ADR-RES ovarian
[36] = system: OVCAR-3 ovarian
[37] = system: OVCAR-4 ovarian
[38] = system: OVCAR-5 ovarian
[39] = system: OVCAR-8 ovarian
[40] = system: PC-3 prostate
[41] = system: RPMI-8226 leukemia
[42] = system: RXF 393 renal
[43] = system: SF-268 CNS
[44] = system: SF-295 CNS
[45] = system: SF-539 CNS
[46] = system: SK-MEL-28 melanoma
[47] = system: SK-MEL-5 melanoma
[48] = system: SK-OV-3 ovarian
[49] = system: SN12C renal
[50] = system: SNB-19 CNS
[51] = system: SNB-75 CNS
[52] = system: SW-620 colon
[53] = system: T-47D breast
[54] = system: TK-10 renal
[55] = system: U251 glioblastoma
[56] = system: UACC-257 melanoma
[57] = system: UACC-62 melanoma
[58] = system: UO-31 renal

With `O=C(Nc1cc(Oc2cc(F)c(NC(=O)C3(C(=O)Nc4ccc(F)cc4)CC3)cc2F)ccn1)C1CC1` the GI50 [1] was 2 µM, the TGI [1] was 8.41 µM and the GI50 [2] was 3.02 µM. It also gave a TGI [2] of 8.19 µM, a GI50 [3] of 1.7 µM and a TGI [3] of 8.94 µM. The GI50 [4] was 1.66 µM, the TGI [4] was 7.31 µM and the GI50 [5] was 2.37 µM. For the same compound, the TGI [5] was 4.71 µM, the GI50 [6] was 1.51 µM and the TGI [6] was 3.28 µM. For the same compound, the GI50 [7] was 0.445 µM, the TGI [7] was 1.47 µM and the GI50 [8] was 0.66 µM. The TGI [8] was 2.87 µM, the GI50 [9] was 1.07 µM and the TGI [9] was 61.4 µM. For the same compound, the GI50 [10] was 1.73 µM, the TGI [10] was 4.38 µM and the GI50 [11] was 0.647 µM. It also gave a TGI [11] of 4.23 µM, a GI50 [12] of 0.801 µM and a TGI [12] of 54.9 µM. It also gave a GI50 [13] of 1.93 µM, a TGI [13] of 5.65 µM and a GI50 [14] of 1.15 µM. The TGI [14] was 2.38 µM, the GI50 [15] was 0.306 µM and the TGI [15] was 1.62 µM. The GI50 [16] was 2.34 µM, the TGI [16] was > 100 µM and the GI50 [17] was 1.35 µM. It also gave a TGI [17] of 2.71 µM, a GI50 [18] of 0.659 µM and a TGI [18] of 39 µM. The GI50 [19] was 1.26 µM, the TGI [19] was 6.93 µM and the GI50 [20] was 0.32 µM. It also gave a TGI [20] of 13.9 µM, a TGI [21] of 2.72 µM and a GI50 [22] of 1.25 µM. For the same compound, the TGI [22] was 2.71 µM, the GI50 [23] was 0.349 µM and the TGI [23] was 1.43 µM. It also gave a GI50 [24] of 0.249 µM, a TGI [24] of 1.1 µM and a GI50 [25] of 0.376 µM. It also gave a TGI [25] of 2.09 µM, a GI50 [26] of 0.472 µM and a TGI [26] of 91.7 µM. It also gave a GI50 [27] of 1.2 µM, a TGI [27] of 2.82 µM and a GI50 [28] of 1.98 µM. For the same compound, the TGI [28] was 3.5 µM, the GI50 [29] was 0.624 µM and the TGI [29] was 1.92 µM. The GI50 [30] was 2.21 µM, the TGI [30] was 7.21 µM and the GI50 [31] was 0.173 µM. The TGI [31] was 0.578 µM, the GI50 [32] was 1.6 µM and the TGI [32] was 6.88 µM. It also gave a GI50 [33] of 1.98 µM, a TGI [33] of 4.31 µM and a GI50 [34] of 2.06 µM. It also gave a TGI [34] of 4.17 µM, a GI50 [35] of 1.78 µM and a TGI [35] of 6.99 µM. For the same compound, the GI50 [36] was 2.35 µM, the TGI [36] was 6 µM and the GI50 [37] was 3.98 µM. It also gave a TGI [37] of 8.26 µM, a GI50 [38] of 2.35 µM and a TGI [38] of 14.8 µM. It also gave a GI50 [39] of 1.95 µM, a TGI [39] of 9.88 µM and a GI50 [40] of 3.3 µM. For the same compound, the TGI [40] was 8.13 µM, the GI50 [41] was 1.93 µM and the TGI [41] was 3.37 µM. It also gave a GI50 [42] of 1.2 µM, a TGI [42] of 2.51 µM and a GI50 [43] of 0.364 µM. For the same compound, the TGI [43] was 0.962 µM, the GI50 [44] was 1.2 µM and the TGI [44] was 5.14 µM. For the same compound, the GI50 [45] was 1.46 µM, the TGI [45] was 2.93 µM and the GI50 [46] was 1.4 µM. The TGI [46] was 2.78 µM, the GI50 [47] was 0.512 µM and the TGI [47] was 1.94 µM. For the same compound, the GI50 [48] was 3.12 µM, the TGI [48] was 9.2 µM and the GI50 [49] was 1.65 µM. For the same compound, the TGI [49] was 4.5 µM, the GI50 [50] was 2.75 µM and the TGI [50] was 11.4 µM. For the same compound, the GI50 [51] was 1.62 µM, the TGI [51] was 3.03 µM and the GI50 [52] was 2.38 µM. It also gave a TGI [52] of 6.96 µM, a GI50 [53] of 1.38 µM and a TGI [53] of 5.17 µM. It also gave a GI50 [54] of 3.13 µM, a TGI [54] of 20.8 µM and a GI50 [55] of 2.5 µM. It also gave a TGI [55] of 6.32 µM, a GI50 [56] of 1.11 µM and a TGI [56] of 2.68 µM. The GI50 [57] was 0.394 µM, the TGI [57] was 1.6 µM and the GI50 [58] was 2.07 µM. The TGI [58] was 7.07 µM.
Compound `CN1CCN(CCOc2cc(OC3CCOCC3)c3c(Nc4c(Cl)ccc5c4OCO5)ncnc3c2)CC1` has a GI50 [1] of 0.943 µM, a TGI [1] of 15.2 µM and a GI50 [2] of 1.95 µM. It also gave a TGI [2] of 12.6 µM, a GI50 [3] of 1.45 µM and a TGI [3] of 17.9 µM. For the same compound, the GI50 [4] was 0.317 µM, the TGI [4] was 12.6 µM and the GI50 [5] was 2.77 µM. For the same compound, the TGI [5] was 16.2 µM, the GI50 [6] was 0.514 µM and the TGI [6] was 13.6 µM. The GI50 [7] was 14.3 µM, the TGI [7] was 27.4 µM and the GI50 [8] was 14.9 µM. The TGI [8] was 28.1 µM, the GI50 [9] was 5.09 µM and the TGI [9] was 18.7 µM. It also gave a GI50 [10] of 0.552 µM, a TGI [10] of 11.9 µM and a GI50 [11] of 5.25 µM. For the same compound, the TGI [11] was 19 µM, the GI50 [12] was 10.7 µM and the TGI [12] was 22.5 µM. It also gave a GI50 [13] of 3.68 µM, a TGI [13] of 18.9 µM and a GI50 [14] of 22.3 µM. The TGI [14] was 36.8 µM, the GI50 [15] was 6.29 µM and the TGI [15] was 19.7 µM. For the same compound, the GI50 [16] was 2.33 µM, the TGI [16] was 17.4 µM and the GI50 [17] was 0.387 µM. For the same compound, the TGI [17] was 4.35 µM, the GI50 [18] was 1.43 µM and the TGI [18] was 8.86 µM. For the same compound, the GI50 [19] was 0.0603 µM, the TGI [19] was 0.295 µM and the GI50 [20] was 0.132 µM. It also gave a TGI [20] of 0.306 µM, a GI50 [21] of 0.658 µM and a TGI [21] of 14 µM. The GI50 [22] was 0.448 µM, the TGI [22] was 7 µM and the GI50 [23] was 15.2 µM. For the same compound, the TGI [23] was 28.6 µM, the GI50 [24] was 14.1 µM and the TGI [24] was 27.1 µM. It also gave a GI50 [25] of 9.74 µM, a TGI [25] of 21.7 µM and a GI50 [26] of 2.83 µM. The TGI [26] was 17.6 µM, the GI50 [27] was 16.2 µM and the TGI [27] was 29.8 µM. For the same compound, the GI50 [28] was 0.403 µM, the TGI [28] was 1.95 µM and the GI50 [29] was 8.27 µM. The TGI [29] was 21.2 µM, the GI50 [30] was 12.5 µM and the TGI [30] was 26.6 µM. For the same compound, the GI50 [31] was 5.77 µM, the TGI [31] was 20.9 µM and the GI50 [32] was 0.387 µM. It also gave a TGI [32] of 10.3 µM, a GI50 [33] of 12.7 µM and a TGI [33] of 25.5 µM. For the same compound, the GI50 [34] was 0.179 µM, the TGI [34] was 10.7 µM and the GI50 [35] was 10.6 µM. It also gave a TGI [35] of 23.8 µM, a GI50 [36] of 1.14 µM and a TGI [36] of 16.8 µM. For the same compound, the GI50 [37] was 13 µM, the TGI [37] was 26.1 µM and the GI50 [38] was 0.679 µM. The TGI [38] was 12 µM, the GI50 [39] was 8.72 µM and the TGI [39] was 21.3 µM. The GI50 [40] was 14.1 µM, the TGI [40] was 35 µM and the GI50 [41] was 14.4 µM. The TGI [41] was 27.5 µM, the GI50 [42] was 0.215 µM and the TGI [42] was 2.94 µM. The GI50 [43] was 0.55 µM, the TGI [43] was 3.18 µM and the GI50 [44] was 11.4 µM. For the same compound, the TGI [44] was 23.5 µM, the GI50 [45] was 10.7 µM and the TGI [45] was 22.6 µM. It also gave a GI50 [46] of 14.7 µM, a TGI [46] of 27.9 µM and a GI50 [47] of 10.8 µM. It also gave a TGI [47] of 22.8 µM, a GI50 [48] of 0.317 µM and a TGI [48] of 13 µM. For the same compound, the GI50 [49] was 0.377 µM, the TGI [49] was 12.8 µM and the GI50 [50] was 9.59 µM. It also gave a TGI [50] of 29 µM, a GI50 [51] of 0.233 µM and a TGI [51] of 0.835 µM. For the same compound, the GI50 [52] was 19.3 µM, the TGI [52] was 33.5 µM and the GI50 [53] was 0.171 µM. The TGI [53] was 3.06 µM, the GI50 [54] was 1.67 µM and the TGI [54] was 5.54 µM. For the same compound, the GI50 [55] was 6.67 µM, the TGI [55] was 19.9 µM and the GI50 [56] was 2.53 µM. The TGI [56] was 10.5 µM, the GI50 [57] was 14.1 µM and the TGI [57] was 27.1 µM. The GI50 [58] was 0.446 µM and the TGI [58] was 15.4 µM.
